The subject of one test is AGS. Nature of the test: Growth inhibition of human AGS cells. It counts as functional.
A short description of test [1]: Growth inhibition of human KATO III cells. It counts as functional.
The subject of another test is SNU1. Nature of the test: Growth inhibition of human SNU1 cells. It counts as functional.
Another test relates to SK-OV-3. Nature of the test: Growth inhibition of human SKOV3 cells. Type of test: functional.
The subject of a further test is OVCAR-8. The test can be described thus: Growth inhibition of human OVCAR8 cells. Type of test: functional.
The subject of a further test is BXPC-3. Nature of the test: Growth inhibition of human BxPC3 cells. Type of test: functional.
The subject of a further test is PANC-1. The test can be described thus: Growth inhibition of human PANC1 cells. Type of test: functional.
The test system of the next test is T-24. The test can be described thus: Growth inhibition of human T24 cells. It counts as functional.
In a further test the test system is WiDr. Nature of the test: Growth inhibition of human WiDr cells. Type of test: functional.
The subject of test [2] is HepG2. The test can be described thus: Growth inhibition of human HepG2 cells. It counts as functional.
The test system of the next test is SN12C. Nature of the test: Growth inhibition of human SN12C cells. Type of test: functional.
The subject of test [3] is K562. Nature of the test: Growth inhibition of human K562 cells. It counts as functional.
In test [4] the test system is MCF7. The test can be described thus: Growth inhibition of human MCF7 cells. It counts as functional.
Test [5] has as its system MCF7. The test can be described thus: Cytotoxicity against human MCF7 cells assessed as reduction in cell viability after 48 hrs by MTT assay. Type of test: functional, cell-based. The following applies: MCF7, 48 h.
Test [6] has as its system HepG2. Nature of the test: Cytotoxicity against human HepG2 cells assessed as reduction in cell viability after 48 hrs by MTT assay. It counts as functional, cell-based. As to conditions: HepG2, 48 h.
For test [7], the system named is MDA-MB-231. Nature of the test: Cytotoxicity against human MDA-MB-231 cells assessed as reduction in cell viability after 24 hrs by MTT assay. It counts as functional, cell-based.
Test [8] deals with MDA-MB-231. The test can be described thus: Potency index, ratio of doxorubicin IC50 to compound IC50 for cytotoxicity against human MDA-MB-231 cells in hypoxic condition. Type of test: functional.
The test system of test [9] is MDA-MB-231. The test can be described thus: Potency index, ratio of doxorubicin IC50 to compound IC50 for cytotoxicity against human MDA-MB-231 cells in normoxic condition. It counts as functional.
Test [10] relates to MDA-MB-231. The test can be described thus: Potency index, ratio of cisplatin IC50 to compound IC50 for cytotoxicity against human MDA-MB-231 cells in hypoxic condition. It counts as functional.
In test [11] the test system is MDA-MB-231. Nature of the test: Potency index, ratio of cisplatin IC50 to compound IC50 for cytotoxicity against human MDA-MB-231 cells in normoxic condition. It counts as functional.
Test [12] addresses Vascular endothelial growth factor receptor 2 (Homo sapiens, UniProt P35968). The test can be described thus: Inhibition of VEGFR2 (unknown origin).
A further test has as its system DLD-1. Nature of the test: Cytotoxicity against human DLD1 cells assessed as reduction in cell viability. Type of test: functional, cell-based.
In test [13] the test system is MCF7. Nature of the test: Cytotoxicity against human MCF7 cells assessed as reduction in cell viability. It counts as functional, cell-based.
The test system of a further test is SNB-75. The test can be described thus: Anticancer activity against human SNB75 cells. It counts as functional.
The test system of another test is OVCAR-4. Nature of the test: Anticancer activity against human OVCAR4 cells. Type of test: functional.
Test [14] deals with NCI-H460. The test can be described thus: Potency index, ratio of doxorubicin GI50 to compound GI50 for growth inhibition of human NCI-H460 cells. Type of test: functional.
For test [15], the system named is SF-268. Nature of the test: Potency index, ratio of doxorubicin GI50 to compound GI50 for growth inhibition of human SF268 cells. It counts as functional.
Test [16] concerns NCI-H460. Nature of the test: Growth inhibition of human NCI-H460 cells. Type of test: functional.
The subject of test [17] is SF-268. The test can be described thus: Growth inhibition of human SF268 cells. Type of test: functional.
For test [18], the system named is MCF7. Nature of the test: Potency index, ratio of doxorubicin GI50 to compound GI50 for growth inhibition of human MCF7 cells. Type of test: functional.
The test system of test [19] is HepG2. Nature of the test: Anticancer activity against human HepG2 cells by CCK8 assay. It counts as functional, cell-based.
For a further test, the system named is Hep 3B2. The test can be described thus: Anticancer activity against human Hep3B cells by CCK8 assay. Type of test: functional, cell-based.
A further test concerns A2780. The test can be described thus: Anticancer activity against human A2780 cells by CCK8 assay. Type of test: functional, cell-based.
The test system of the next test is OVCAR-3. The test can be described thus: Anticancer activity against human OVCAR3 cells by CCK8 assay. It counts as functional, cell-based.
For test [20], the system named is A549. Nature of the test: Anticancer activity against human A549 cells by MTT assay. It counts as functional, cell-based.
Test [21] deals with MDA-MB-231. Nature of the test: Anticancer activity against human MDA-MB-231 cells by MTT assay. Type of test: functional, cell-based.
The subject of test [22] is HeLa. Nature of the test: Anticancer activity against human HeLa cells by MTT assay. It counts as functional, cell-based.
Test [23] concerns K562. The test can be described thus: Anticancer activity against human K562 cells by MTT assay. Type of test: functional, cell-based.
Test [24] concerns A549. The test can be described thus: Potency index, ratio of doxorubicin IC50 to compound IC50 for anticancer activity against human A549 cells. It counts as functional.
Test [25] deals with MDA-MB-231. The test can be described thus: Potency index, ratio of doxorubicin IC50 to compound IC50 for anticancer activity against human MDA-MB-231 cells. It counts as functional.
Test [26] has as its system HeLa. Nature of the test: Potency index, ratio of doxorubicin IC50 to compound IC50 for anticancer activity against human HeLa cells. It counts as functional.
Test [27] relates to K562. Nature of the test: Potency index, ratio of doxorubicin IC50 to compound IC50 for anticancer activity against human K562 cells. It counts as functional.
Test [28] has as its system A549. The test can be described thus: Cytotoxicity against human A549 cells assessed as reduction in cell viability after 24 hrs by MTT assay. It counts as functional, cell-based. The following applies: A549, 24 h.
Another test deals with L02. The test can be described thus: Cytotoxicity against human L02 cells assessed as reduction in cell viability after 24 hrs by MTT assay. Type of test: cell-based. The following applies: L02, 24 h.
Another test has as its system HEK-293T. The test can be described thus: Cytotoxicity against HEK293T cells assessed as reduction in cell viability after 24 hrs by MTT assay. It counts as cell-based. As to conditions: Homo sapiens.
Test [29] concerns HeLa. The test can be described thus: Cytotoxicity against human HeLa cells assessed as reduction in cell viability after 24 hrs by MTT assay. Type of test: functional, cell-based.
Test [30] deals with MCF7. The test can be described thus: Cytotoxicity against human MCF7 cells assessed as reduction in cell viability after 24 hrs by MTT assay. Type of test: functional, cell-based. As to conditions: MCF7, 24 h.
Test [31] relates to MDA-MB-231. Nature of the test: Cytotoxicity against human MDA-MB-231 cells assessed as reduction in cell viability. Type of test: functional, cell-based.
A further test concerns Ishikawa. Nature of the test: Cytotoxicity against human Ishikawa cells assessed as reduction in cell viability. Type of test: functional, cell-based.

Converted amounts (≈) assume the structure as drawn.

Chain of Vascular endothelial growth factor receptor 2 (P35968 whole entry): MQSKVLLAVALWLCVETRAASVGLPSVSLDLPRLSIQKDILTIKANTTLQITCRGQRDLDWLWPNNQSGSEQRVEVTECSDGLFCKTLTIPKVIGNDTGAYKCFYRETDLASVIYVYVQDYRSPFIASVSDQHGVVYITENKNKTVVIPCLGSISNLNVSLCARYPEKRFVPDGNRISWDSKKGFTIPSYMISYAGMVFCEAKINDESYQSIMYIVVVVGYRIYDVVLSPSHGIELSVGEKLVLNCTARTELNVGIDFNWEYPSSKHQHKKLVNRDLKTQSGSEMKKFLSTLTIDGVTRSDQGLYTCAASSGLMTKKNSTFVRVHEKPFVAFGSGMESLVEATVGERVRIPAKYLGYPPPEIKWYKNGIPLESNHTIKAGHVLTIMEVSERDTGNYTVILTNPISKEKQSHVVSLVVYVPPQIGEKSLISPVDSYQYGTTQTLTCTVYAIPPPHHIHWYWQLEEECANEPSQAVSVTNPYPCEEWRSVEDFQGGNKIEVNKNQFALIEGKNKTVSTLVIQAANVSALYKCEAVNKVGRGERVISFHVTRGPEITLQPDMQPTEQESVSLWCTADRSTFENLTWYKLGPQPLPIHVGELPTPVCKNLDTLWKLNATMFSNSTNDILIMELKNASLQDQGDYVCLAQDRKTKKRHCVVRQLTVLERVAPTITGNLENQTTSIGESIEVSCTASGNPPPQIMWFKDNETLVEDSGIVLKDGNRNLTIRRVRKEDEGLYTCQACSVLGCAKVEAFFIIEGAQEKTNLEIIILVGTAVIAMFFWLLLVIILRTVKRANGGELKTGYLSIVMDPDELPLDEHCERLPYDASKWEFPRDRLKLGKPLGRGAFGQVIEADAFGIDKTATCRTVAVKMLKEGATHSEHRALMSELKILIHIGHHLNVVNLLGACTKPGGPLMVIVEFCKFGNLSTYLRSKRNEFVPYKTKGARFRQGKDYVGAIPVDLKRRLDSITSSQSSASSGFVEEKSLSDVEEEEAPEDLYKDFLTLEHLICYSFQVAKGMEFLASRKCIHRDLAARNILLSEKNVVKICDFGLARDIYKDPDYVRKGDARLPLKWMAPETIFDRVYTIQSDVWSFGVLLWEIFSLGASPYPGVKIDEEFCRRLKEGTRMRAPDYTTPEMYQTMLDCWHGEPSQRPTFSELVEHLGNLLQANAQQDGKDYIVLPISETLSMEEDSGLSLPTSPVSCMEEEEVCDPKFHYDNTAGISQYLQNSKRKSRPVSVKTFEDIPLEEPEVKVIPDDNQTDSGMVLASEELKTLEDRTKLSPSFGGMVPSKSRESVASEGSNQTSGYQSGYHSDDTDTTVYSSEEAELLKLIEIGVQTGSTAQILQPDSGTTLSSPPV

As to `CCN(CC)c1ccc2cc(-c3nc4ccccc4n3C)c(=O)oc2c1`, the GI50 (with AGS; in test [1]; with SNU1; in the test on SK-OV-3; with OVCAR-8; with BXPC-3) was 0.07 to 0.41 µM throughout. The concentration for 50% growth inhibition (GI50) in the test on PANC-1, with T-24, in the test with WiDr, in the test on HepG2 [2], with SN12C and in the test on K562 [3] was 0.07 to 0.41 µM throughout. In the test with MCF7 [4], this compound returned a GI50 of 0.07 to 0.41 µM.

In the case of `Cc1cc(-c2cc3cc(Cl)ccc3oc2=O)n(-c2nc(-c3ccc(Cl)cc3)cs2)n1`, the IC50 in the test on MCF7 [5] was 4.03 to 31.5 µM; in the test with HepG2 [6], 3.06 to 3.74 µM.

Take `COc1ccc(-c2csc(-n3nc(C)cc3-c3cc4cc(Cl)ccc4oc3=O)n2)cc1`: the IC50 is 4.03 to 31.5 µM with MCF7 [5] and 3.06 to 3.74 µM with HepG2 [6].

On to `COc1ccc(NC(=O)c2ccc(-n3cc(COc4cc(=O)oc5ccccc45)nn3)cc2)cc1OC`, for which, in the test with MDA-MB-231 [7] (mda-mb-231), the IC50 lay in the range of 0.03 to 91.6 µM. For the same compound, the “Ratio IC50” value in the test with MDA-MB-231 [8], in the test with MDA-MB-231 [9], in the test with MDA-MB-231 [10] and in the test with MDA-MB-231 [11] was 20 - 156 in each case.

Take `Cc1ccc(/N=N/c2sc(N3N=C(c4c(O)c5ccccc5oc4=O)CC3c3ccc(N(C)C)cc3)nc2-c2ccccc2)cc1` (centres undefined): the IC50 was in the range of 0.034 to 0.582 µM in [12], 114 to 129 µM with DLD-1 and 5.41 to 6.56 µM in the test on MCF7 [13].

As to `Nc1ccc2c(-c3nc4ccc(Br)c(O)c4s3)cc(=O)oc2c1`, the GI50 turned out to be 0.24 µM in the test with SNB-75 and 0.33 µM in the test on OVCAR-4.

With `O=c1oc2ccccc2cc1-c1nc2ccccc2n1C(=S)Nc1ccccc1`, the GI50 in the test on MCF7 [4], in the test on NCI-H460 [16] and in the test with SF-268 [17] was 0.05 to 0.08 µM throughout. Moreover, the RatioGI50 with NCI-H460 [14], in the test on SF-268 [15] and in the test on MCF7 [18] was 1.5 - 2 each time.

`CCN(CC)c1ccc2cc(C(=O)N3CCN(CCC[C@H]4O[C@@H]5O[C@@]6(C)CC[C@H]7[C@H](C)CC[C@@H]([C@H]4C)[C@@]57OO6)CC3)c(=O)oc2c1`: the IC50 in the test with HepG2 [19], with Hep 3B2, in the test with A2780 and with OVCAR-3 was 3.05 to 5.82 µM each time.

Take `COc1ccc(-n2nc(C)n(-n3c(-c4cc5ccccc5oc4=O)cs/c3=N\c3ccc(Cl)cc3)c2=O)cc1`: the IC50 with A549 [20], in the test with MDA-MB-231 [21], in the test with HeLa [22] and in the test on K562 [23] was 0.16 to 0.31 µg/mL (≈ 0.287 to 0.556 µM) each time. For the same compound, the “Ratio IC50” value with A549 [24], in the test on MDA-MB-231 [25], in the test on HeLa [26] and in the test on K562 [27] was 1.9 - 3.3 each time.

Consider `Cc1cc(-c2cc3ccccc3oc2=O)n(-c2nc(-c3ccc(Cl)cc3)cs2)n1`, for which the concentration for half-maximal inhibition (IC50) was 4.03 to 31.5 µM with MCF7 [5] and 3.06 to 3.74 µM in the test on HepG2 [6].

Consider `CC(C)=CC[C@@H](OCc1ccc(C(=O)/N=C/c2c(Cl)c3ccccc3oc2=O)cc1)C1=CC(=O)c2c(O)ccc(O)c2C1=O`, for which the IC50 is 3.25 to 10.6 µM in the test on MDA-MB-231 [7] (Homo sapiens, MDA-MB-231, 24 h); 3.25 to 10.6 µM in the test on A549 [28]; 3.25 to 10.6 µM in the test on L02; 3.25 to 10.6 µM with HEK-293T; 3.25 to 10.6 µM in the test with HeLa [29]; 3.25 to 10.6 µM in the test on MCF7 [30].

As to `CN(C)c1ccc(C2CC(c3cc4ccccc4oc3=O)=NN2c2nc(-c3ccccc3)c(/N=N/c3ccc(Cl)cc3)s2)cc1` (centres undefined), the figures for the IC50 (in test [12]; in the test with DLD-1; in the test on MCF7 [13]) were 0.034 to 0.582 µM, 114 to 129 µM and 5.41 to 6.56 µM, respectively.

In the case of `CCOC(=O)c1cc2cc(-c3nc4cc(C)ccn4c3NC(C)(C)C)cc(C(C)C)c2oc1=O`, the IC50 in the test with MDA-MB-231 [31], with Ishikawa and with MCF7 [13] was 14.1 to 50 µM throughout.
